In PubChem BioAssay (NCI):
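Five concentrations, 48 hours, 96-well plates. TGI denotes the concentration required for complete inhibition of growth.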

What was measured:
Experiment in all cases: NCI anticancer screen, dose series, 48 h
T-47D breast = tested on: T-47D breast
SF-295 CNS = tested on: SF-295 CNS
HOP-92 NSCLC = tested on: HOP-92 NSCLC
DU-145 prostate = tested on: DU-145 prostate
U251 CNS = tested on: U251 CNS
UO-31 renal = tested on: UO-31 renal
HCC-2998 colon = tested on: HCC-2998 colon
MALME-3M melanoma = tested on: MALME-3M melanoma
UACC-257 melanoma = tested on: UACC-257 melanoma
CAKI-1 renal = tested on: CAKI-1 renal
MDA-N = tested on: MDA-N
SNB-19 CNS = tested on: SNB-19 CNS
OVCAR-4 ovarian = tested on: OVCAR-4 ovarian
A498 renal = tested on: A498 renal
SK-MEL-5 melanoma = tested on: SK-MEL-5 melanoma
KM12 colon = tested on: KM12 colon
COLO 205 colon = tested on: COLO 205 colon
EKVX NSCLC = tested on: EKVX NSCLC

CO[C@@H]1C[C@H](OC(N)=O)[C@@H]2C=C[C@@H]3/C=C(C)/C=C/[C@@H](C)[C@H](/C(C)=C/[C@@H](C)NC(C)=O)OC(=O)/C=C/C=C(C)\C=C\[C@]3(C)[C@@H]2C1
TGI (T-47D breast): 2.98 µM
TGI (SF-295 CNS): 0.111 µM
TGI (HOP-92 NSCLC): 0.148 µM
TGI (DU-145 prostate): 2.43 µM
TGI (U251 CNS): 0.375 µM
TGI (UO-31 renal): 0.111 µM
TGI (HCC-2998 colon): 0.664 µM
TGI (MALME-3M melanoma): 0.798 µM
TGI (UACC-257 melanoma): 0.0866 µM
TGI (CAKI-1 renal): 0.167 µM
TGI (MDA-N): 2.12 µM
TGI (SNB-19 CNS): 10.2 µM
TGI (OVCAR-4 ovarian): 11.4 µM
TGI (A498 renal): 0.0867 µM
TGI (SK-MEL-5 melanoma): 0.604 µM
TGI (KM12 colon): 0.163 µM
TGI (COLO 205 colon): 0.514 µM
TGI (EKVX NSCLC): 0.843 µM
